The record followed here is ChEMBL document CHEMBL3232829, “Synthesis and multitarget biological profiling of a novel family of rhein derivatives as disease-modifying anti-Alzheimer agents” (J Med Chem, 2014).

In data set [1] the target is Amyloid-beta precursor protein (Homo sapiens) (UniProt P05067). Kind of data set: Inhibition of aggregation of amyloid beta-42 (unknown origin) expressed in Escherichia coli BL21 (DE3) assessed as amyloid fibril formation at 10 uM after 24 hrs by thioflavin S fluorescence method.
Amyloid-beta precursor protein (Homo sapiens), sequence (P05067 whole entry): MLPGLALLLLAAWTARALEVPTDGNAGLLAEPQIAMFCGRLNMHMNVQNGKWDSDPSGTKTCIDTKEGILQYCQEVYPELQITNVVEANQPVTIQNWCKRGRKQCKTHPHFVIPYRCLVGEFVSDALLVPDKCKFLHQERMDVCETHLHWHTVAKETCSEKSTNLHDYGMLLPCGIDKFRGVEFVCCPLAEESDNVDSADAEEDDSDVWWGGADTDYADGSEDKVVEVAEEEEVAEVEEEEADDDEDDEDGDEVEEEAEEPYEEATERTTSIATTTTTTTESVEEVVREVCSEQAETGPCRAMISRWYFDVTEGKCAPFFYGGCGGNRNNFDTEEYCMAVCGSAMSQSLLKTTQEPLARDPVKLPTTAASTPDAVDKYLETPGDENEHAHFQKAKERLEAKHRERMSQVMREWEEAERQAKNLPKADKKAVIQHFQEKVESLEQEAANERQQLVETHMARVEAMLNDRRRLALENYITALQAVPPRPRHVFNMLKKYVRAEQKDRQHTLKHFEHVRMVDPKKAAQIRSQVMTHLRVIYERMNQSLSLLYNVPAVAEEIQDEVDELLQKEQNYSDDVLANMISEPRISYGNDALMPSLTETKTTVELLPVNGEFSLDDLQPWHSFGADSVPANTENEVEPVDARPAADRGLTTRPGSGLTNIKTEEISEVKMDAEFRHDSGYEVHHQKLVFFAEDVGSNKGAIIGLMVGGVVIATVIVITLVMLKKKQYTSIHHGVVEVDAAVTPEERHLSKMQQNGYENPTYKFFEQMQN
The target in data set [2] is T1, Beta-secretase 1 (Homo sapiens, UniProt P56817). Put plainly: Inhibition of human recombinant BACE1 using methoxycoumarin-Ser-Glu-Val-Asn-Leu-Asp-Ala-Glu-Phe-Lys-dinitrophenyl as substrate preincubated for 1 hr by FRET assay. The conditions noted are these: for pIC50: read-out: IC50.
T1 sequence (P56817 whole entry): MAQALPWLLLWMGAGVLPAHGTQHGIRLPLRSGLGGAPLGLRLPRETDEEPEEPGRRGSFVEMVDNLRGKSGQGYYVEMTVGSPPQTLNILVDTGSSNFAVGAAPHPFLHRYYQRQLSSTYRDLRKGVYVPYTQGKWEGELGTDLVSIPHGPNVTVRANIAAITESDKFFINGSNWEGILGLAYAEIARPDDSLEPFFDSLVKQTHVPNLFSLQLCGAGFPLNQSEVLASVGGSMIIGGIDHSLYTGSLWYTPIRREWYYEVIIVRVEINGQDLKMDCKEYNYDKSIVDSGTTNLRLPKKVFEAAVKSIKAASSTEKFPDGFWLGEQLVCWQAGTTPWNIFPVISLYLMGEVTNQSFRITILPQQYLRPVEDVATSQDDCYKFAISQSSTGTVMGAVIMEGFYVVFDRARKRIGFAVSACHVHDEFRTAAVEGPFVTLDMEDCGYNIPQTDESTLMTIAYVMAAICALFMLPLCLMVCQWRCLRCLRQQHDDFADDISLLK
Data set [3] concerns the target Microtubule-associated protein tau (Homo sapiens) (UniProt P10636). Put plainly: Inhibition of aggregation of tau protein (unknown origin) expressed in Escherichia coli BL21 (DE3) assessed as amyloid fibril formation at 10 uM after 24 hrs by thioflavin S fluorescence method.
The next data set concerns the target Acetylcholinesterase (Homo sapiens, UniProt P22303).
Data set [4] can be described thus: Permeability of the compound by PAMPA assay. It is filed as physicochemical. The conditions noted are these: read-out: permeability. A general note: In PAMPA a lipid-coated filter parts donor from acceptor wells.
In data set [5] the target is T1, Beta-secretase 1. Particulars: 5 uM.
Data set [6] has as its target Amyloid-beta precursor protein (Homo sapiens) (UniProt P05067). Put plainly: Inhibition of amyloid beta-42 (unknown origin) aggregation assessed as amyloid fibril formation at 10 uM after 24 hrs by thioflavin T fluorescence method.
The target of a further data set is Cholinesterase (Homo sapiens, UniProt P06276). Put plainly: Inhibition of human serum BChE using butyrylthiocholine iodide as substrate preincubated for 20 mins by Ellman's method. (In general: In Ellman's method for cholinesterases, released thiocholine reacts with DTNB.)
Cholinesterase, sequence (P06276 whole entry): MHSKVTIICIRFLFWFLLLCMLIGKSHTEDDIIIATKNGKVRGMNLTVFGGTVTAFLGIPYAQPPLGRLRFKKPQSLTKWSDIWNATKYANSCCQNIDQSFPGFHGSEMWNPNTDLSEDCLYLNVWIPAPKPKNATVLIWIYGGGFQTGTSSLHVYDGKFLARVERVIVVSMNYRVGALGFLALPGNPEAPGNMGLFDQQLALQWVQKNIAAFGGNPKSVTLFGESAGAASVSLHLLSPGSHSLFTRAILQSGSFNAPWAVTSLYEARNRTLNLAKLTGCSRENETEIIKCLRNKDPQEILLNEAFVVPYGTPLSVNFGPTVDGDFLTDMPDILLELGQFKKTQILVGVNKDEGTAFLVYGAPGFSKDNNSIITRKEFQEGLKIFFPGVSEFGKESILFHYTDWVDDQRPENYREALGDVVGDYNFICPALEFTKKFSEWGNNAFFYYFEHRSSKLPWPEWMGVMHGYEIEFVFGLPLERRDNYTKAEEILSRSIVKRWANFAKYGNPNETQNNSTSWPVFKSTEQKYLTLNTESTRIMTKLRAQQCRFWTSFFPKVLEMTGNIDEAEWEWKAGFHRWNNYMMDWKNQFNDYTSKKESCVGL
In data set [7] the target is T1, Beta-secretase 1. Put plainly: Inhibition of human recombinant BACE1 using methoxycoumarin-Ser-Glu-Val-Asn-Leu-Asp-Ala-Glu-Phe-Lys-dinitrophenyl as substrate at 1 uM preincubated for 1 hr by FRET assay.
The test system of data set [8] is Mus musculus. Kind of data set: Antialzheimer activity in APP-PS1 transgenic 7 month old mouse hippocampus assessed as reduction of hexamers of amyloid beta level at 2 mg/kg, ip administered 3 times in a week for 4 weeks by immunoblot analysis. Also on record: dose 2 mg/kg. It counts as functional, organism-based.
In data set [9] the test system is Hippocampus. Put plainly: Neuroprotective activity against amyloid beta-42-induced synaptic failure in C57bl6 mouse hippocampal slices assessed as increase of VGlut1 protein level at 1 to 100 uM uM after 1 hr by Western blot analysis. It is filed as functional, tissue-based. On the technique in general: In western blotting, separated proteins are transferred to a membrane and probed.

Data set [10] has as its system Hippocampus. Kind of data set: Neuroprotective activity against amyloid beta-42-induced synaptic failure in C57bl6 mouse hippocampal slices assessed as increase of PSD95 protein level at 10 to 100 uM uM after 1 hr by Western blot analysis. It counts as functional, tissue-based.
In data set [11] the test system is Hippocampus. Kind of data set: Neuroprotective activity against amyloid beta-42-induced synaptic failure in C57bl6 mouse hippocampal slices assessed as induction of long-term potentiation at 10 uM after 1 hr by electrophysiology assay relative to control. It counts as functional.
The test system of data set [12] is Hippocampus. Put plainly: Neuroprotective activity against amyloid beta-42-induced synaptic failure in C57bl6 mouse hippocampal slices assessed as increase of SYP protein level at 1 to 100 uM uM after 1 hr by Western blot analysis. It counts as functional, tissue-based.
Data set [13] relates to Mus musculus. Kind of data set: Antialzheimer activity in APP-PS1 transgenic 7 month old mouse hippocampus assessed as reduction of dodecamer of amyloid beta level at 2 mg/kg, ip administered 3 times in a week for 4 weeks by immunoblot analysis. Also on record: dose 2 mg/kg. It counts as functional, organism-based.
The test system of data set [14] is Mus musculus. Put plainly: Antialzheimer activity in APP-PS1 transgenic 11 month old mouse hippocampus assessed as reduction of hexamers of amyloid beta level at 2 mg/kg, ip administered 3 times in a week for 4 weeks by immunoblot analysis. It counts as functional, organism-based. Also noted: dose 2 mg/kg.
For data set [15], the system named is Hippocampus. Kind of data set: Neuroprotective activity against amyloid beta-42-induced synaptic failure in C57bl6 mouse hippocampal slices assessed as increase of SYN protein level at 1 to 100 uM uM after 1 hr by Western blot analysis. It counts as functional, tissue-based.
For data set [16], the system named is Mus musculus. Kind of data set: Antialzheimer activity in APP-PS1 transgenic 11 month old mouse hippocampus assessed as reduction of dodecamer of amyloid beta level at 2 mg/kg, ip administered 3 times in a week for 4 weeks by immunoblot analysis. It counts as functional, organism-based. Also on record: dose 2 mg/kg.
The test system of data set [17] is Hippocampus. Put plainly: Neuroprotective activity against amyloid beta-42-induced synaptic failure in C57bl6 mouse hippocampal slices assessed as increase of GluA2 protein level at 10 to 100 uM uM after 1 hr by Western blot analysis. It counts as functional, tissue-based.
The test system of data set [18] is Hippocampus. Put plainly: Neuroprotective activity against amyloid beta-42-induced synaptic failure in C57bl6 mouse hippocampal slices assessed as induction of field excitatory postsynaptic potential at 10 uM after 1 hr by electrophysiology assay relative to control. It is filed as functional.
Data set [19] concerns Hippocampus. Put plainly: Neuroprotective activity against amyloid beta-42-induced synaptic failure in C57bl6 mouse hippocampal slices assessed as increase of GluA2 protein level at 1 to 100 uM uM after 1 hr by Western blot analysis. It counts as functional, tissue-based.
Data set [20] relates to Hippocampus. Put plainly: Neuroprotective activity against amyloid beta-42-induced synaptic failure in C57bl6 mouse hippocampal slices assessed as increase of PSD95 protein level at 1 to 100 uM uM after 1 hr by Western blot analysis. It counts as functional, tissue-based.

pIC50: −log10 of the molar value. Calls of active or inactive are those of the source. No cut-off for these calls is given here.

Acetylcholinesterase, sequence (P22303 whole entry): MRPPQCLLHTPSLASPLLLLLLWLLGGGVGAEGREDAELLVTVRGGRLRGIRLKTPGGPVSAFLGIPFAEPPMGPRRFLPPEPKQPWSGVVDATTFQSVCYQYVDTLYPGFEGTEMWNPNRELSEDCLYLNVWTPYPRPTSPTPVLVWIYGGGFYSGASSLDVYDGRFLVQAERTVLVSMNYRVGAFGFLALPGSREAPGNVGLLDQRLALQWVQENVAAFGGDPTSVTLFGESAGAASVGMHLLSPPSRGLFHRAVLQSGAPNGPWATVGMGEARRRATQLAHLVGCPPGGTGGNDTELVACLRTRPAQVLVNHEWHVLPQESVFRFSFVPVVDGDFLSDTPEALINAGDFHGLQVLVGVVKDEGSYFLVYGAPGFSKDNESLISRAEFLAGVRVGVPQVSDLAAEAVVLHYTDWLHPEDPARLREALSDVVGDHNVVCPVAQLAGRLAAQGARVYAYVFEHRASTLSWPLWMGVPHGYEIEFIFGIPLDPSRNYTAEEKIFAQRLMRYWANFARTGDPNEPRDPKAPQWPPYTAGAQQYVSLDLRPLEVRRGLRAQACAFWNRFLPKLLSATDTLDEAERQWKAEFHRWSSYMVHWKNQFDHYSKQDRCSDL
Microtubule-associated protein tau (Homo sapiens), sequence (P10636 whole entry): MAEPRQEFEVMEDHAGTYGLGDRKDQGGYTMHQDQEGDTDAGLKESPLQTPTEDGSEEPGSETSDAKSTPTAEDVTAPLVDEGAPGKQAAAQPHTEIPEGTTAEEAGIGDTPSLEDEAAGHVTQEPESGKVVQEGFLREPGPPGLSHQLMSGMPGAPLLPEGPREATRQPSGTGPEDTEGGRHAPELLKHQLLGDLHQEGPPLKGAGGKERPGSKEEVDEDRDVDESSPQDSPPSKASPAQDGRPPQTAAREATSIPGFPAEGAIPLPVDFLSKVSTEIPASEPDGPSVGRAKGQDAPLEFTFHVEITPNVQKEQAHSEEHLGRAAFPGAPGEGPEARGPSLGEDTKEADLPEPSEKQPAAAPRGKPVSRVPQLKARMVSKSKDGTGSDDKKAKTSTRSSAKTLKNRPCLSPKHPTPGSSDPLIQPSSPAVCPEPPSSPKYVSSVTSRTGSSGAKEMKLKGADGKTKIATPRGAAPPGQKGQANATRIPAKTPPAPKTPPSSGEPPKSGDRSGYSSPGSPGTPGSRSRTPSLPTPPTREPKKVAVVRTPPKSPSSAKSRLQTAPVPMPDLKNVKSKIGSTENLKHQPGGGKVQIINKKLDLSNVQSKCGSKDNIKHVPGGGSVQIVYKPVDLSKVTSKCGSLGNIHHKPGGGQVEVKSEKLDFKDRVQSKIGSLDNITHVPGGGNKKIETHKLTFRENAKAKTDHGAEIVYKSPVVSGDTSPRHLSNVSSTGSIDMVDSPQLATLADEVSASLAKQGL
Description for Acetylcholinesterase: Inhibition of human recombinant AChE using acetylthiocholine iodide as substrate preincubated for 20 mins by Ellman's method

Usually inhibition stands for the share of the control response that was lost under treatment. Broadly, the pIC50 is the IC50 on a negative log10 scale, so that one unit is a factor of ten. As for `O=C(O)c1cc(O)c2c(c1)C(=O)c1cccc(O)c1C2=O` [RHEIN], the inhibition was 49.9% in data set [1] and 40.8% in data set [3]. Moreover, on Beta-secretase 1 [2], the IC50 entry was “Not Active”. Moreover, the pIC50 on Acetylcholinesterase was less than 5.00. Further, in data set [4], the Papp came to 2.7 ×10⁻⁶ cm/s.
Turning to `CC1=C[C@@H]2Cc3nc4cc(Cl)ccc4c(N)c3[C@H](C1)C2`, the inhibition came to 14% at Beta-secretase 1 [5] and 11.5% in data set [6]. In addition, the pIC50 at Beta-secretase 1 [2] was less than 5.30. The Papp in data set [4] was 23.6 ×10⁻⁶ cm/s.
`CC1=CC2Cc3nc4cc(Cl)ccc4c(NCCCCCCCCCCCNC(=O)c4cc(O)c5c(c4)C(=O)c4cccc(O)c4C5=O)c3C(C1)C2.Cl` (racemic): the values for the inhibition in data set [1], in data set [6] and in data set [3] were 40.7%, 35.3% and 46.3%, respectively. The negative logarithm of the IC50 (pIC50) on Beta-secretase 1 [2] is 5.92. Also, the Papp in data set [4] is 16.4 ×10⁻⁶ cm/s.
As to `CC1=CC2Cc3nc4cc(Cl)ccc4c(NCCCCCCCCCNC(=O)c4cc(O)c5c(c4)C(=O)c4cccc(O)c4C5=O)c3C(C1)C2.Cl` (racemic), the inhibition in data set [1] came out at 47.9%; in [6] it was 38%; in data set [3], 29.6%. Besides, on Beta-secretase 1 [2], the pIC50 was 6.92. In [4], the Papp turned out to be 21.5 ×10⁻⁶ cm/s.
For the compound `CC1=C[C@H]2Cc3nc4cc(Cl)ccc4c(N)c3[C@@H](C1)C2.Cl`, in data set [6], the inhibition worked out at 13.2%. The pIC50 on Beta-secretase 1 [2] was less than 5.30. The Papp in [4] worked out at 25.4 ×10⁻⁶ cm/s.
Regarding `CC1=CC2Cc3nc4cc(Cl)ccc4c(NCc4ccc(CNC(=O)c5cc(O)c6c(c5)C(=O)c5cccc(O)c5C6=O)cc4)c3C(C1)C2.Cl` (racemic), the results for the inhibition in data set [1], in data set [6] and in data set [3] were 57.9%, 32.4% and 23.1%, respectively. For the same compound, at Beta-secretase 1 [2], the pIC50 was 5.69. Besides, the Papp in data set [4] amounted to 16.3 ×10⁻⁶ cm/s.
With `CC1=CC2Cc3nc4cc(Cl)ccc4c(NCCCCCCCNC(=O)c4cc(O)c5c(c4)C(=O)c4cccc(O)c4C5=O)c3C(C1)C2.Cl` (racemic), the pIC50 against Cholinesterase was 5.84; against Acetylcholinesterase, 8.50. Moreover, the inhibition was 63.2% in data set [1], 40.6% in data set [6] and 52% in data set [3]. Also, at Beta-secretase 1 [7], the inhibition result is “inactive”. Moreover, the Papp in [4] stood at 27.5 ×10⁻⁶ cm/s.
As to `CC1=C[C@@H]2Cc3nc4cc(Cl)ccc4c(NCCCCCCCCCNC(=O)c4cc(O)c5c(c4)C(=O)c4cccc(O)c4C5=O)c3[C@H](C1)C2`, the result with Mus musculus [8], in the data set with Hippocampus [9], in the data set on Hippocampus [10], with Mus musculus [13], in the data set on Mus musculus [16] and with Hippocampus [17] was Active. Moreover, the values for the inhibition in data set [1], in [6] and in data set [3] were 47.2%, 43.2% and 34.3%, respectively. In addition, the result in the data set with Hippocampus [11], in the data set with Hippocampus [12], with Mus musculus [14], with Hippocampus [15] and with Hippocampus [18] was inactive.
Turning to `CC1=CC2Cc3nc4cc(Cl)ccc4c(NCCCCCCCCNC(=O)c4cc(O)c5c(c4)C(=O)c4cccc(O)c4C5=O)c3C(C1)C2.Cl` (racemic), the inhibition in data set [1] turned out to be 50.2%; in [6], 33.1%; in data set [3] it was 29.2%. Also, at Beta-secretase 1 [2], the negative-log IC50 (pIC50) is 6.01. The Papp in [4] worked out at 22.4 ×10⁻⁶ cm/s.
Take `CC1=CC2Cc3nc4cc(Cl)ccc4c(N)c3C(C1)C2.Cl` (racemic): the inhibition entry in [1] and in data set [3] was “inactive” each time.
As to `CC1=C[C@H]2Cc3nc4cc(Cl)ccc4c(NCCCCCCCCCNC(=O)c4cc(O)c5c(c4)C(=O)c4cccc(O)c4C5=O)c3[C@@H](C1)C2.Cl`, the outcome in the data set with Hippocampus [19], with Mus musculus [8], in the data set with Hippocampus [20], in the data set on Mus musculus [13], in the data set with Hippocampus [15] and in the data set with Mus musculus [16] was Active. For the same compound, the outcome in the data set with Hippocampus [9] and with Hippocampus [12] was inactive. The inhibition in data set [1] came to 58.6%; in data set [6], 38.4%; in data set [3], 24.9%. Further, the Activity in the data set with Hippocampus [11] and in the data set on Hippocampus [18] was 200% throughout.
As for `CC1=CC2Cc3nc4cc(Cl)ccc4c(NCCCCCNC(=O)c4cc(O)c5c(c4)C(=O)c4cccc(O)c4C5=O)c3C(C1)C2.Cl` (racemic), the pIC50 against Cholinesterase was 6.02; against Acetylcholinesterase, 8.97. Further, the inhibition in data set [1] was 68%; in data set [6], 38.7%; in data set [3], 43.7%. In addition, the inhibition entry on Beta-secretase 1 [7] was “inactive”. The Papp in data set [4] was 20 ×10⁻⁶ cm/s.
`CC1=CC2Cc3nc4cc(Cl)ccc4c(NCCCCCCCCCCNC(=O)c4cc(O)c5c(c4)C(=O)c4cccc(O)c4C5=O)c3C(C1)C2.Cl` (racemic): the inhibition in data set [1] amounted to 43.3%; in data set [6], 40.9%; in data set [3] it was 57.1%. Further, the pIC50 on Beta-secretase 1 [2] is 5.92. In [4], the Papp came to 18.1 ×10⁻⁶ cm/s.
As for `CC1=CC2Cc3nc4cc(Cl)ccc4c(NCCCCCCNC(=O)c4cc(O)c5c(c4)C(=O)c4cccc(O)c4C5=O)c3C(C1)C2` (racemic), the figures for the pIC50 on Cholinesterase and against Acetylcholinesterase were 5.97 and 8.82, respectively. For the same compound, the inhibition in data set [1] was determined as 68.4%; in data set [6] it was 40.8%; in [3] it was 30.9%. Moreover, the inhibition entry on Beta-secretase 1 [7] was “inactive”.
